Source: the supplement of paper PMC4862054

What was measured:
Conditions in all cases: incubation time: 72 h
HCC1599 [1] = assay: drug sensitivity score (DSS), CellTox Green (DSS (AUC-based score)); higher = stronger drug effect (viability inhibition or cytotoxicity); extreme values may be limits of the assay
Procedure, shortened: (§1)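 Breast cancer cell lines (20 µl suspension) were seeded into 384-well plates holding compound at 5 concentrations in 10-fold steps over a compound-specific 10,000-fold range, then incubated 72 h. CellTox Green fluorescence (485/520 nm) was read first, then CellTiter-Glo luminescence after 10 min at room temperature. Each plate was normalised to 0.1 % DMSO and a positive kill control. The drug sensitivity score was calculated from the area under the fitted dose-response curve.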

BT-549 [2] = assay: as above
Procedure, shortened: as §1

CAL-51 [3] = assay: as above
Procedure, shortened: as §1

MDA-MB-453 [4] = assay: as above
Procedure, shortened: as §1

CAL-148 [5] = assay: as above
Procedure, shortened: as §1

HDQ-P1 [6] = assay: as above
Procedure, shortened: as §1

Hs578T [7] = assay: as above
Procedure, shortened: as §1

MDA-MB-231 [8] = assay: as above
Procedure, shortened: as §1

MFM-223 [9] = assay: as above
Procedure, shortened: as §1

DU-4475 [10] = assay: as above
Procedure, shortened: as §1

CAL-85-1 = assay: normalised viability (% of control), CellTiter-Blue; higher = more viable cells (about 100 = DMSO control)
Protocol: (§2)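 DSRT, CellTiter-Blue viability, 72 h incubation. Signal is normalised to DMSO and benzethonium chloride controls. Value is the normalised response at dose 3.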

HCC1599 [11] = assay: as above
Protocol: as §2

BT-549 [12] = assay: as above
Protocol: as §2

MDA-MB-468 = assay: as above
Protocol: as §2

CAL-51 [13] = assay: as above
Protocol: as §2

MDA-MB-436 = assay: as above
Protocol: as §2

MDA-MB-453 [14] = assay: as above
Protocol: as §2

SK-BR-3 = assay: as above
Protocol: as §2

CAL-148 [15] = assay: as above
Protocol: as §2

HDQ-P1 [16] = assay: as above
Protocol: as §2

Hs578T [17] = assay: as above
Protocol: as §2

MDA-MB-231 [18] = assay: as above
Protocol: as §2

HCC1937 = assay: as above
Protocol: as §2

MFM-223 [19] = assay: as above
Protocol: as §2

BT-474 = assay: as above
Protocol: as §2

DU-4475 [20] = assay: as above
Protocol: as §2

CAL-120 [21] = assay: as above
Protocol: as §2

HCC1143 = assay: as above
Protocol: as §2

CAL-120 [22] = assay: normalised viability (% of control), CellTiter-Blue; higher = more viable cells (about 100 = DMSO control); remark: listed apart in the source
Procedure, shortened: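 384-well plates were pre-loaded with compound in 5 µl medium before 20 µl of breast cancer cell suspension was seeded. Following 72 h incubation, 2.5 µl CellTiter-Blue reagent was added for 2 h at 37 °C. Fluorescence was read at 560/590 nm and plates were normalised to vehicle (100) and a positive kill control (0), checked by Z'-factor. Normalised viability is reported at a single listed concentration of the series.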

Row | SMILES | drug sensitivity score (HCC1599 [1]) | drug sensitivity score (BT-549 [2]) | drug sensitivity score (CAL-51 [3]) | drug sensitivity score (MDA-MB-453 [4]) | drug sensitivity score (CAL-148 [5]) | drug sensitivity score (HDQ-P1 [6]) | drug sensitivity score (Hs578T [7]) | drug sensitivity score (MDA-MB-231 [8]) | drug sensitivity score (MFM-223 [9]) | drug sensitivity score (DU-4475 [10]) | normalised viability (CAL-85-1; 10 nM) [%] | normalised viability (HCC1599 [11]; 100 nM) [%] | normalised viability (BT-549 [12]; 100 nM) [%] | normalised viability (MDA-MB-468; 100 nM) [%] | normalised viability (CAL-51 [13]; 10 nM) [%] | normalised viability (MDA-MB-436; 100 nM) [%] | normalised viability (MDA-MB-453 [14]; 10 nM) [%] | normalised viability (SK-BR-3; 100 nM) [%] | normalised viability (CAL-148 [15]; 10 nM) [%] | normalised viability (CAL-120 [22]; 1000 nM) [%] | also measured
1 | COc1ccc(S(=O)(=O)Nc2cccnc2Nc2ccc(O)cc2)cc1 [ABT-751] | 0 | 10.2 | 1.79 | 0 | 0 | 0 | 7.06 | 8.51 | 4.05 | 0 | 88.8 | 102 | 89 | 101 | 113 | 108 | 87 | 71.6 | 90.4 | 26.8 | normalised viability (HDQ-P1 [16]; 10 nM): 106%; normalised viability (Hs578T [17]; 100 nM): 88.1%; normalised viability (MDA-MB-231 [18]; 100 nM): 91.4%; normalised viability (HCC1937; 100 nM): 92.4%; normalised viability (MFM-223 [19]; 100 nM): 91%; normalised viability (BT-474; 100 nM): 112%; normalised viability (DU-4475 [20]; 10 nM): 109%; normalised viability (CAL-120 [21]; 100 nM): 93%; normalised viability (HCC1143; 100 nM): 87.2%; normalised viability (CAL-120 [22]; 10 nM): 81.7%; normalised viability (CAL-120 [22]; 10000 nM): 21.6%
2 | Cc1cc(Nc2nc(N[C@@H](C)c3ncc(F)cn3)ncc2Cl)[nH]n1 [AZD1480] | 0 | 0.354 | 0 | 0 | 0 | 0 | 1.75 | 0 | 1.25 | 0 |  |  |  |  |  |  |  |  |  | 72.1 | normalised viability (CAL-85-1; 1 nM): 106%; normalised viability (HCC1599 [11]; 10 nM): 109%; normalised viability (BT-549 [12]; 10 nM): 94.3%; normalised viability (MDA-MB-468; 10 nM): 105%; normalised viability (CAL-51 [13]; 1 nM): 112%; normalised viability (MDA-MB-436; 10 nM): 135%; normalised viability (MDA-MB-453 [14]; 1 nM): 108%; normalised viability (SK-BR-3; 10 nM): 132%; normalised viability (CAL-148 [15]; 1 nM): 88.9%; normalised viability (HDQ-P1 [16]; 1 nM): 110%; normalised viability (Hs578T [17]; 10 nM): 90.8%; normalised viability (MDA-MB-231 [18]; 10 nM): 98.1%; normalised viability (HCC1937; 10 nM): 100%; normalised viability (MFM-223 [19]; 10 nM): 89.8%; normalised viability (BT-474; 10 nM): 124%; normalised viability (DU-4475 [20]; 1 nM): 98.2%; normalised viability (CAL-120 [21]; 10 nM): 96.9%; normalised viability (HCC1143; 10 nM): 87.5%; normalised viability (CAL-120 [22]; 1 nM): 87.9%; normalised viability (CAL-120 [22]; 100 nM): 90.6%
3 | CNC(=O)c1ccccc1Sc1ccc2c(/C=C/c3ccccn3)n[nH]c2c1 [Axitinib] | 0 | 0 | 6.53 | 0 | 2.44 | 0 | 0 | 0 | 0 | 0 | 96 | 89.7 | 113 | 101 | 107 | 70 | 104 | 58.8 | 98 | 94.7 | normalised viability (HDQ-P1 [16]; 10 nM): 100%; normalised viability (Hs578T [17]; 100 nM): 73.2%; normalised viability (MDA-MB-231 [18]; 100 nM): 102%; normalised viability (HCC1937; 100 nM): 118%; normalised viability (MFM-223 [19]; 100 nM): 82.6%; normalised viability (BT-474; 100 nM): 114%; normalised viability (DU-4475 [20]; 10 nM): 113%; normalised viability (CAL-120 [21]; 100 nM): 96.8%; normalised viability (HCC1143; 100 nM): 101%; normalised viability (CAL-120 [22]; 10 nM): 91.2%; normalised viability (CAL-120 [22]; 10000 nM): 55.2%
4 | CC(O)(CS(=O)(=O)c1ccc(F)cc1)C(=O)Nc1ccc(C#N)c(C(F)(F)F)c1 (stereo not given) [Bicalutamide] | 0 | 0 | 0 | 0 | 0 | 0 | 0 | 0 | 0 | 0 | 110 | 83.7 | 84.5 | 94.6 | 105 | 98.7 | 101 | 94.1 | 109 | 107 | normalised viability (HDQ-P1 [16]; 10 nM): 121%; normalised viability (Hs578T [17]; 100 nM): 93.6%; normalised viability (MDA-MB-231 [18]; 100 nM): 105%; normalised viability (HCC1937; 100 nM): 83%; normalised viability (MFM-223 [19]; 100 nM): 87%; normalised viability (BT-474; 100 nM): 115%; normalised viability (DU-4475 [20]; 10 nM): 103%; normalised viability (CAL-120 [21]; 100 nM): 97.2%; normalised viability (HCC1143; 100 nM): 99.8%; normalised viability (CAL-120 [22]; 10 nM): 96%; normalised viability (CAL-120 [22]; 10000 nM): 119%
5 | COc1cc(Nc2c(C#N)cnc3cc(OCCCN4CCN(C)CC4)c(OC)cc23)c(Cl)cc1Cl [Bosutinib] | 0.637 | 1.47 | 5.81 | 1.6 | 2.51 | 3.06 | 3.59 | 7.99 | 0 | 0 | 108 | 108 | 113 | 107 | 116 | 130 | 104 | 74.8 | 84.6 | 70.5 | normalised viability (HDQ-P1 [16]; 10 nM): 128%; normalised viability (Hs578T [17]; 100 nM): 106%; normalised viability (MDA-MB-231 [18]; 100 nM): 121%; normalised viability (HCC1937; 100 nM): 98.2%; normalised viability (MFM-223 [19]; 100 nM): 90.3%; normalised viability (BT-474; 100 nM): 103%; normalised viability (DU-4475 [20]; 10 nM): 109%; normalised viability (CAL-120 [21]; 100 nM): 90.4%; normalised viability (HCC1143; 100 nM): 84.3%; normalised viability (CAL-120 [22]; 10 nM): 87.5%; normalised viability (CAL-120 [22]; 10000 nM): 11.1%
